Test system: HLA-A*02
Assay: MHC binding assay, UV-ligand exchange with β2m ELISA, HLA-A*02 (Table 20)
Parameters: species or system human
Settings: binding to HLA-A*02 ranged by peptide exchange yield (UV-ligand exchange, β2m ELISA)
Source text: Candidate peptides for T cell based therapies according to the present invention were further tested for their MHC binding capacity (affinity). The individual peptide-MHC complexes were produced by UV-ligand exchange, where a UV-sensitive peptide is cleaved upon UV-irradiation, and exchanged with the peptide of interest as analyzed. Only peptide candidates that can effectively bind and stabilize the peptide-receptive MHC molecules prevent dissociation of the MHC complexes. To determine the yield of the exchange reaction, an ELISA was performed based on the detection of the light chain ((β2m) of stabilized MHC complexes. The assay was performed as generally described in Rodenko et al. (Rodenko et al., 2006).
96 well MAXISorp plates (NUNC) were coated over night with 2 ug/ml streptavidin in PBS at room temperature, washed 4× and blocked for 1 h at 37° C. in 2% BSA containing blocking buffer. Refolded HLA-A*02:01/MLA-001 monomers served as standards, covering the range of 15-500 ng/ml. Peptide-MHC monomers of the UV-exchange reaction were diluted 100 fold in blocking buffer. Samples were incubated for 1 h at 37° C., washed four times, incubated with 2 ug/ml HRP conjugated anti-β2m for 1 h at 37° C., washed again and detected with TMB solution that is stopped with […]. Absorption was measured at 450 nm. Candidate peptides that show a high exchange yield (preferably higher than 50%, most preferred higher than 75%) are generally preferred for a generation and production of antibodies or fragments thereof, and/or T cell receptors or fragments thereof, as they show sufficient avidity to the MHC molecules and prevent dissociation of the MHC complexes.

| Substance | Peptide exchange |
| --- | --- |
| 82 (FIFDEAEKL; listed as Homo sapiens) [compound 82] | + (<20% = +) |
| 83 (GQASYFYVA; listed as Homo sapiens) [compound 83] | ++ (20%-49% = ++) |
| 84 (ALCPRIHEV; listed as Homo sapiens) [compound 84] | ++++ (≧75% = ++++) |
| 85 (VLNDILVRA; listed as Homo sapiens) [compound 85] | +++ (50%-75% = +++) |
| 86 (SVDSHFQEV; listed as Homo sapiens) [compound 86] | ++ (20%-49% = ++) |
| 87 (TIYKDFVYI; listed as Homo sapiens) [compound 87] | ++ (20%-49% = ++) |
| 88 (AQADHLPQL; listed as Homo sapiens) [compound 88] | ++ (20%-49% = ++) |
| 89 (QLAPVFQRV; listed as Homo sapiens) [compound 89] | ++ (20%-49% = ++) |
| 94 (LLLPAVPVGA; listed as Homo sapiens) [compound 94] | +++ (50%-75% = +++) |
| 95 (GLLGSLFFL; listed as Homo sapiens) [compound 95] | ++++ (≧75% = ++++) |
| 98 (RLFPDFFTRVAL; listed as Homo sapiens) [compound 98] | ++ (20%-49% = ++) |
| 99 (YLLQSVNQLLL; listed as Homo sapiens) [compound 99] | ++ (20%-49% = ++) |
| 100 (ALLGMIIVGV; listed as Homo sapiens) [compound 100] | + (<20% = +) |
| 101 (ALADFMLSL; listed as Homo sapiens) [compound 101] | +++ (50%-75% = +++) |
| 102 (VLLDIQEVFQI; listed as Homo sapiens) [compound 102] | +++ (50%-75% = +++) |
| 103 (YLVSEIFKA; listed as Homo sapiens) [compound 103] | +++ (50%-75% = +++) |
| 104 (ALISWQPPRA; listed as Homo sapiens) [compound 104] | +++ (50%-75% = +++) |

| Substance | Peptide exchange |
| --- | --- |
| 105 (ALLGTKILL; listed as Homo sapiens) [compound 105] | +++ (50%-75% = +++) |
| 106 (FINDSIVYL; listed as Homo sapiens) [compound 106] | +++ (50%-75% = +++) |
| 107 (LLVPTSGIYFV; listed as Homo sapiens) [compound 107] | +++ (50%-75% = +++) |
| 108 (ILLKNLVTI; listed as Homo sapiens) [compound 108] | ++ (20%-49% = ++) |
| 109 (SLDPSVTHL; listed as Homo sapiens) [compound 109] | ++ (20%-49% = ++) |
| 110 (FLLGVSKEV; listed as Homo sapiens) [compound 110] | +++ (50%-75% = +++) |
| 111 (AIVDLIHDI; listed as Homo sapiens) [compound 111] | ++ (20%-49% = ++) |
| 112 (SLGKFTFDV; listed as Homo sapiens) [compound 112] | ++++ (≧75% = ++++) |
| 113 (FLERGLESA; listed as Homo sapiens) [compound 113] | ++ (20%-49% = ++) |
| 114 (QLIQTLHAV; listed as Homo sapiens) [compound 114] | +++ (50%-75% = +++) |
| 115 (SLDPDTLPAV; listed as Homo sapiens) [compound 115] | ++ (20%-49% = ++) |
| 117 (KMPDVELFV; listed as Homo sapiens) [compound 117] | +++ (50%-75% = +++) |
| 118 (QLWQFLVTL; listed as Homo sapiens) [compound 118] | +++ (50%-75% = +++) |
| 119 (FIIQGLRSVGA; listed as Homo sapiens) [compound 119] | +++ (50%-75% = +++) |
| 120 (VTPVTVSAV; listed as Homo sapiens) [compound 120] | + (<20% = +) |
| 121 (FTIFRTISV; listed as Homo sapiens) [compound 121] | +++ (50%-75% = +++) |
| 122 (GVVDPVHGV; listed as Homo sapiens) [compound 122] | ++ (20%-49% = ++) |

Next, values leading:

| Peptide exchange | Substance |
| --- | --- |
| ++ (20%-49% = ++) | 123 (VLDPALPALV; listed as Homo sapiens) [compound 123] |
| ++ (20%-49% = ++) | 124 (KVMATIEKV; listed as Homo sapiens) [compound 124] |
| ++++ (≧75% = ++++) | 125 (SLADYEHFV; listed as Homo sapiens) [compound 125] |
| ++++ (≧75% = ++++) | 126 (QMFQYFITV; listed as Homo sapiens) [compound 126] |
| +++ (50%-75% = +++) | 127 (KLDGNELDL; listed as Homo sapiens) [compound 127] |
| ++ (20%-49% = ++) | 128 (TQSPATLSV; listed as Homo sapiens) [compound 128] |
| ++++ (≧75% = ++++) | 129 (RLQDILWFL; listed as Homo sapiens) [compound 129] |
| +++ (50%-75% = +++) | 130 (SLLGGTFVGI; listed as Homo sapiens) [compound 130] |
| +++ (50%-75% = +++) | 131 (VTSNSGILGV; listed as Homo sapiens) [compound 131] |
| +++ (50%-75% = +++) | 132 (ILGEVLAQL; listed as Homo sapiens) [compound 132] |
| ++++ (≧75% = ++++) | 133 (ALLPRLHQL; listed as Homo sapiens) [compound 133] |
| +++ (50%-75% = +++) | 134 (GLAVPTPSV; listed as Homo sapiens) [compound 134] |
| +++ (50%-75% = +++) | 135 (HLSTIIHEA; listed as Homo sapiens) [compound 135] |
| ++ (20%-49% = ++) | 136 (FLFGGVLMTL; listed as Homo sapiens) [compound 136] |
| +++ (50%-75% = +++) | 142 (ILVEGISTV; listed as Homo sapiens) [compound 142] |
| +++ (50%-75% = +++) | 143 (ALLPELREV; listed as Homo sapiens) [compound 143] |
| +++ (50%-75% = +++) | 145 (YLWATIQRI; listed as Homo sapiens) [compound 145] |
| ++ (20%-49% = ++) | 146 (ALHFSEDEI; listed as Homo sapiens) [compound 146] |
| ++++ (≧75% = ++++) | 147 (YLMDDTVEI; listed as Homo sapiens) [compound 147] |
| +++ (50%-75% = +++) | 148 (MLAGIAITV; listed as Homo sapiens) [compound 148] |

| Peptide exchange | Substance |
| --- | --- |
| +++ (50%-75% = +++) | 152 (MMVGDLLEV; listed as Homo sapiens) [compound 152] |
| ++++ (≧75% = ++++) | 153 (FISERVEVV; listed as Homo sapiens) [compound 153] |
| +++ (50%-75% = +++) | 154 (RLLGTEFQV; listed as Homo sapiens) [compound 154] |
| +++ (50%-75% = +++) | 155 (LLNPVVEFV; listed as Homo sapiens) [compound 155] |
| +++ (50%-75% = +++) | 156 (ILGDLSHLL; listed as Homo sapiens) [compound 156] |
| +++ (50%-75% = +++) | 157 (TLTSLLAQA; listed as Homo sapiens) [compound 157] |
| +++ (50%-75% = +++) | 234 (LLSPHNPAL; listed as Homo sapiens) [compound 234] |
| +++ (50%-75% = +++) | 236 (STIAILNSV; listed as Homo sapiens) [compound 236] |
| +++ (50%-75% = +++) | 237 (ALAPHLDDA; listed as Homo sapiens) [compound 237] |
| ++ (20%-49% = ++) | 238 (GLYERPTAA; listed as Homo sapiens) [compound 238] |
| ++ (20%-49% = ++) | 239 (KMNESTRSV; listed as Homo sapiens) [compound 239] |
| +++ (50%-75% = +++) | 240 (YMGEEKLIASV; listed as Homo sapiens) [compound 240] |
| ++ (20%-49% = ++) | 241 (KTIQQLETV; listed as Homo sapiens) [compound 241] |
| ++ (20%-49% = ++) | 242 (WLYGEDHQI; listed as Homo sapiens) [compound 242] |
| +++ (50%-75% = +++) | 243 (FMADDIFSV; listed as Homo sapiens) [compound 243] |
| ++ (20%-49% = ++) | 244 (YLLEKNRVV; listed as Homo sapiens) [compound 244] |
| ++++ (≧75% = ++++) | 245 (SLLDLPLSL; listed as Homo sapiens) [compound 245] |
| +++ (50%-75% = +++) | 246 (TVSDVLNSV; listed as Homo sapiens) [compound 246] |
| +++ (50%-75% = +++) | 250 (SLAPATPEV; listed as Homo sapiens) [compound 250] |

Source: US20170189504A1, “NOVEL PEPTIDES AND COMBINATION OF PEPTIDES FOR USE IN IMMUNOTHERAPY AGAINST VARIOUS CANCERS” (immatics biotechnologies GmbH, priority 2015, published 2017)
